PubChem BioAssay (NCI)
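These data come from cells grown in 96-well plates and exposed to compound for 48 hours at five concentrations. GI50 marks 50% less growth. TGI marks complete inhibition of growth.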

What was measured:
Assay in all cases: NCI tumour cell line growth inhibition, 48 h
[1] = system: RPMI-8226 leukemia
[2] = system: SF-268 CNS
[3] = system: SN12C renal
[4] = system: CCRF-CEM leukemia
[5] = system: HS 578T breast
[6] = system: NCI/ADR-RES ovarian
[7] = system: DU-145 prostate
[8] = system: M14 melanoma
[9] = system: U251 CNS
[10] = system: HCT-15 colon
[11] = system: 786-0 renal
[12] = system: HCC-2998 colon
[13] = system: LOX IMVI melanoma
[14] = system: SK-MEL-28 melanoma
[15] = system: TK-10 renal
[16] = system: PC-3 prostate
[17] = system: KM12 colon
[18] = system: NCI-H522 lung
[19] = system: HL-60(TB) leukemia
[20] = system: BT-549 breast
[21] = system: SW-620 colon
[22] = system: SK-MEL-2 melanoma
[23] = system: HT29 colon
[24] = system: SF-539 CNS
[25] = system: MCF7 breast
[26] = system: MDA-MB-435
[27] = system: A549 NSCLC
[28] = system: OVCAR-5 ovarian

For `CC[C@@]12CC(C(=O)OC)=C3Nc4ccccc4[C@@]34CCN(C[C@H]3O[C@H]31)[C@@H]24`, the GI50 [1] was 23.5 µM, the TGI [1] was greater than 100 µM and the GI50 [2] was greater than 100 µM. For the same molecule, the TGI [2] was greater than 100 µM, the GI50 [3] was greater than 100 µM and the TGI [3] was greater than 100 µM. The GI50 [4] was 33.9 µM, the TGI [4] was greater than 100 µM and the GI50 [5] was 25.4 µM. For the same molecule, the TGI [5] was greater than 100 µM, the GI50 [6] was 31 µM and the TGI [6] was greater than 100 µM. For the same molecule, the GI50 [7] was greater than 100 µM, the TGI [7] was greater than 100 µM and the GI50 [8] was 31.7 µM. The TGI [8] was greater than 100 µM, the GI50 [9] was 43 µM and the TGI [9] was greater than 100 µM. It also gave a GI50 [10] of 33.5 µM, a TGI [10] greater than 100 µM and a GI50 [11] greater than 100 µM. The TGI [11] was greater than 100 µM, the GI50 [12] was greater than 100 µM and the TGI [12] was greater than 100 µM. It also gave a GI50 [13] of 34.8 µM, a TGI [13] greater than 100 µM and a GI50 [14] of 86.2 µM. It also gave a TGI [14] greater than 100 µM, a GI50 [15] greater than 100 µM and a TGI [15] greater than 100 µM. The GI50 [16] was 52.7 µM, the TGI [16] was greater than 100 µM and the GI50 [17] was 41.3 µM. For the same molecule, the TGI [17] was greater than 100 µM, the GI50 [18] was 20.9 µM and the TGI [18] was greater than 100 µM. For the same molecule, the GI50 [19] was 24.7 µM, the TGI [19] was 81 µM and the GI50 [20] was 43.5 µM. It also gave a TGI [20] greater than 100 µM, a GI50 [21] of 35.9 µM and a TGI [21] greater than 100 µM. The GI50 [22] was 25.1 µM, the TGI [22] was greater than 100 µM and the GI50 [23] was 29.2 µM. It also gave a TGI [23] greater than 100 µM, a GI50 [24] of 61.2 µM and a TGI [24] greater than 100 µM. The GI50 [25] was 46 µM, the TGI [25] was greater than 100 µM and the GI50 [26] was 16.2 µM. For the same molecule, the TGI [26] was 44.1 µM, the GI50 [27] was 58.3 µM and the TGI [27] was greater than 100 µM. For the same molecule, the GI50 [28] was greater than 100 µM and the TGI [28] was greater than 100 µM.
